Six compounds from patent US8609870B2, “Treating various disorders using TrkB agonists” (Emory University, priority 2008, dated 2013) can be followed below.

For one experiment, the target named is TrkA (Mus musculus, UniProt Q3UFB7). The experiment is described as follows: TrkA activation in cortical neurons from knockout mouse pups. It is filed as cell-based. On the set-up: endogenous in cells; host or cells: primary cortical neurons from mouse pups. The conditions noted are these: cortical neurons (pups of TrkB +/− mice).
The subject of another experiment is caspase-3. Kind of experiment: Caspase-3 activation in cortical neurons from knockout mouse pups. The experiment is classed as cell-based. The protocol: (§1) To determine whether an identified active compound selectively activates TrkB receptor and prevents neuronal cell death, cortical neurons are prepared from homozygous pups of TrkB +/− mice, which are mated to the same genotype. The activation of TrkB and down stream indicators of TrkB activation, such as Capase-3, are monitored. To further assess whether an identified active compound blocks neuronal apoptosis in a TrkB dependent manner, cortical neurons are prepared from homozygous pups of […], which are mated to the same genotype. Again, the activation of TrkB and down stream indicators of TrkB activation, such as Capase-3, are monitored.
(§2) Additionally, the spontaneous caspase-3 activation in […] was suppressed by deoxygedunin.

The subject of experiment [1] is TrkB. The experiment is described as follows: TrkB activation in cortical neurons from knockout mouse pups. The conditions noted are these: wild-type cortical neurons (pups of TrkB +/− mice). It is filed as cell-based. The protocol: as §1, §2
The next experiment deals with mice. Kind of experiment: Forced swim test. It is filed as in vivo, mouse. The protocol:
To explore whether an identified active compound has an antidepressant effect like BDNF, a forced swim test is conducted. Adult male mice (2-3 months old) are randomly submitted, without a pre-swim, to a forced swim test of 6 minutes with immobility recorded in the last 4 minutes. The mice are injected intraperitoneally for 5 days with saline, imipramine (20 mg/kg), amitryptyline (15 mg/kg), or an identified active compound (5 mg/kg). The mice are allowed to adapt to the test room for 2 days, and the mice are placed in a clear glass cylinder with a diameter of 16 cm, half-filled with clear water at 24° C.
To investigate whether deoxygedunin mimicked BDNF in suppressing depression-like symptoms, a forced swim test after subchronic treatment of the mice for 5 days with various drugs was conducted. […] To assess whether the behavior responses by 7,8-DHF and deoxygedunin were mediated by TrkB receptor, TrkB F616A knockin mice were used. The transgenic mice were subjected to saline or 1NMPP1 treatment, respectively.

In a further experiment the test system is Akt and Erk1/2. Kind of experiment: Akt and Erk1/2 activation in cortical neurons from TrkB F616A knockin mice. It is filed as cell-based, mouse. The procedure: (§3) To explore whether the neuroprotective action of an identified active compound is dependent on TrkB activation in vivo, TrkB F616A knockin mice are used. […] To further assess whether an identified active compound can mimic BDNF, cortical neurons are prepared from TrkB F616A knockin mice. The cortical neurons are pretreated for 30 minutes with either K252a Trk tyrosine kinase inhibitor (100 nM) or 1NMPP1 inhibitor (100 nM) followed by 0.5 μM identified active compound for 30 minutes.
(§4) […] inversely correlated with TrkB activation by deoxygedunin (FIG. 20, top and middle panels).

The subject of a further experiment is TrkB F616A knockin mice. Kind of experiment: KA-provoked apoptosis (caspase-3) in TrkB F616A knockin mice. It is filed as in vivo, mouse. The protocol: To determine if 1NMPP1 makes neurons treated with an identified active compound vulnerable to KA-provoked neuronal cell death, TrkF616A knockin mice are fed with 1NMPP1 (25 mM) in drinking water one day prior to pharmacological reagent treatment. The next day, the mice are intraperitoneally injected with KA (25 mg/kg), or an identified active compound (5 mg/kg) 4 hours prior to KA injection. The control mice are injected with either KA or an identified active compound alone, or the mice are administered an identified active compound 4 hours before KA. After 4 days, the mice are sacrificed and the brains are homogenized and ultracentrifuged. The supernatant then is employed for SDS-PAGE and immunoblotting analysis.
as §4

The target in another experiment is T1, TrkB F616A (Mus musculus, UniProt P15209, F616A).
T1 construct: cortical neurons from TrkB F616A knockin mice; endogenous in cells; host or cells: primary cortical neurons from TrkB F616A knock-in mice
Kind of experiment: TrkB phosphorylation in cortical neurons from TrkB F616A knockin mice. It is filed as cell-based. The conditions noted are these: inhibitor pretreatment. The protocol:
as §3, §4

The test system of experiment [2] is hippocampal neurons. The experiment is described as follows: Glutamate-triggered apoptosis in hippocampal neurons (MR(DEVD)2 / condensed nuclei). The experiment is classed as cell-based. As to conditions: 0.5 μM preincubated 30 min, then 50 μM glutamate 16 h. The protocol: To create and test reporter cell lines. In order to identify small molecules that mimic BDNF and activate TrkB, TrkB stably transfected murine cell lines are created. The T48 and T62 cell lines are created by transfecting basal forebrain SN56 cells, which express negligible TrkB, with a TrkB expression construct. To test expression of TrkB, the cells are treated with BDNF, which is predicted to result in strong phosphorylation of Trk-490 and Akt activation in comparison to the TrkA NTR stably expressing T17 cell line indicating expression of TrkB. To test resistance to apoptosis, the SN56 cells and the T48 cell line are either untreated or treated with BDNF, and then are subjected to an apoptotic assay. The apoptotic assay involves treating the cells with 0.75 μM Staurosporine for 9 hours, and 1 hour before completing the experiment, the cells are treated with 10 μM MR (DEVD)2. The cells then are fixed with 4% paraformaldehyde for 15 minutes, washed with phosphate buffered saline (PBS), and incubated with Hoechst 33342 for 10 minutes. Cover slides are washed with PBS, mounted, and then the cells are examined using a fluorescent microscope to see which cells turn red upon caspase cleavage.
To compare the apoptosis inhibitory activity of identified active compounds, the compounds are preincubated with SN56 and T48 cells, and subsequently are subjected to the fluorescent apoptotic assay as described above. To examine whether these identified active compounds promote neuronal survival, hippocampal neurons are prepared and the cultures are pretreated with the identified active compounds for 30 minutes, followed by treatment with 50 μM glutamate for 16 hours.
Using a cell-based screen as described above in Example 1 (based on the anti-apoptotic action of TrkB signaling) and the chemical library from the Spectrum Collection (described above), 66 positive hits were generated, four of which were gedunin derivatives. […] In this assay, neurons with both cleaved caspase (MR (DEVD)2 red cells) and condensed nuclei (DAPI staining) were counted as apoptotic cells. […]

Experiment [3] deals with hippocampal neurons. The experiment is described as follows: Oxygen-glucose deprivation (OGD) apoptosis in hippocampal neurons. The experiment is classed as cell-based. As to conditions: apoptotic ratio compared to BDNF and DMSO.
The subject of experiment [4] is TrkB. The experiment is described as follows: TrkB phosphorylation in hippocampal neurons (immunofluorescent staining, immunoblotting). It is filed as cell-based. The conditions noted are these: K252a pretreatment of hippocampal neurons. The protocol: Unless specifically described, primary hippocampal neurons are seeded on poly-L lysine coated coverslips in a 12-well plate. After 7 days in vitro, the neurons are treated with 100 ng/ml BDNF or variety of flavone compounds (1 μM) for 30 minutes, and then are washed with PBS. Cells are fixed with 3% formaldehyde in PBS at room temperature for 10 minutes. The cells then are permeabilized and blocked by 0.4% Triton X-100 and 2% FBS in PBS at room temperature for 15 minutes, are washed with PBS three times, and are treated with anti-MAP2 (1:200) and anti-phospho-TrkB antibodies (1:500). After staining with FITC- or Rhodamine-conjugated secondary antibody, the coverslips are mounted on slides. Fluorescent images are taken by a fluorescence microscope.
BDNF binding to TrkB induces its autophosphorylation and, subsequently, activation of downstream kinase pathways including MAPK and PI3/Akt. […] To examine whether an identified active compound stimulates TrkB-mediated downstream signaling cascades, Western analysis is performed and the activation of Akt and Erk also is monitored. […] To probe the time course of TrkB activation triggered by an identified active compound, hippocampal neurons are treated with an identified active compound at 500 nM and phosphorylation of Erk and Akt is determined over time by Western analysis. […]
(In general: A western blot detects proteins with antibodies after separation by electrophoresis.)

In the next experiment the test system is Erk1/2 and Akt. Kind of experiment: Erk1/2 and Akt activation in hippocampal neurons (Western blot). The experiment is classed as cell-based. As to conditions: K252a pretreatment of hippocampal neurons. The protocol:
BDNF binding to TrkB induces its autophosphorylation and, subsequently, activation of downstream kinase pathways including MAPK and PI3/Akt. To explore whether an identified active compound triggers TrkB activation, immunofluorescent staining on hippocampal neurons with anti-phospho TrkB antibody is conducted. To examine whether an identified active compound stimulates TrkB-mediated downstream signaling cascades, Western analysis is performed and the activation of Akt and Erk also is monitored. To test whether the stimulatory effect of an identified active compound is mediated through TrkB, cells are either untreated or treated with K252a, a selective inhibitor of the tyrosine kinase activity of the Trk family of neutrophin receptors. Cells treated with K252a block TrkB tyrosine phosphorylation in cells exposed to an identified active compound. To probe the time course of TrkB activation triggered by an identified active compound, hippocampal neurons are treated with an identified active compound at 500 nM and phosphorylation of Erk and Akt is determined over time by Western analysis. Whether stimulation of Erk and Akt by an identified active compound occurs in a dose dependent manner also is determined.
Both Akt and Erk1/2 were robustly activated by these molecules as well). […] The minimal required drug concentration was about 100-250 nM (see FIG. 7, right panels). […] To assess whether deoxygedunin provokes TrkB activation in the brain, mice (i.p.) were injected with a dose of 5 mg/kg for various time points. […] To establish that deoxygedunin is orally bioactive in provoking TrkB activation, two to three month old C57BL/6J mice were orally injected with various doses of 7,8-dihydroxyflavone or deoxygedunin then sacrificed 2 to 4 hours after administration. Brain lysates were prepared and analyzed by immunoblotting (see FIG. 10).

TrkA, sequence (Q3UFB7 34-799): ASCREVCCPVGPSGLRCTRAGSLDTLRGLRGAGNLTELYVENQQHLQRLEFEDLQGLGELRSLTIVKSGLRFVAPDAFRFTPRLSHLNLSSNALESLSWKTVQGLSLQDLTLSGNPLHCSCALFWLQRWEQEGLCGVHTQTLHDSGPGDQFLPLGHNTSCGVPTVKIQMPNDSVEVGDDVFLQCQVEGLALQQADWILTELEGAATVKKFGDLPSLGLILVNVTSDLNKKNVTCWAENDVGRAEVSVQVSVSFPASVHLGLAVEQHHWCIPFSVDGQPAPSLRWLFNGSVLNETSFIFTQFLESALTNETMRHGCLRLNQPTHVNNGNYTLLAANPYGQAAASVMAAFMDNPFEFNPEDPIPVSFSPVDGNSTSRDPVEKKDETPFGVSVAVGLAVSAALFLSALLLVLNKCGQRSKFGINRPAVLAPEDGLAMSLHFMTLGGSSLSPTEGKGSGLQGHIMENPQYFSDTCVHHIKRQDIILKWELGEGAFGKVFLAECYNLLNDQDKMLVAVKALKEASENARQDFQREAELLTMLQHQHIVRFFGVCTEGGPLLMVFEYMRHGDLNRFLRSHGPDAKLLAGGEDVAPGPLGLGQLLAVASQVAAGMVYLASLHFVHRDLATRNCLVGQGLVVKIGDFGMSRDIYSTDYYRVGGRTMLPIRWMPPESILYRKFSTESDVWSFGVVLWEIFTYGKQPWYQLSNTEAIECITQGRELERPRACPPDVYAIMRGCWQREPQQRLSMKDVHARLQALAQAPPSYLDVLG
T1 sequence (P15209 32-821 F616A): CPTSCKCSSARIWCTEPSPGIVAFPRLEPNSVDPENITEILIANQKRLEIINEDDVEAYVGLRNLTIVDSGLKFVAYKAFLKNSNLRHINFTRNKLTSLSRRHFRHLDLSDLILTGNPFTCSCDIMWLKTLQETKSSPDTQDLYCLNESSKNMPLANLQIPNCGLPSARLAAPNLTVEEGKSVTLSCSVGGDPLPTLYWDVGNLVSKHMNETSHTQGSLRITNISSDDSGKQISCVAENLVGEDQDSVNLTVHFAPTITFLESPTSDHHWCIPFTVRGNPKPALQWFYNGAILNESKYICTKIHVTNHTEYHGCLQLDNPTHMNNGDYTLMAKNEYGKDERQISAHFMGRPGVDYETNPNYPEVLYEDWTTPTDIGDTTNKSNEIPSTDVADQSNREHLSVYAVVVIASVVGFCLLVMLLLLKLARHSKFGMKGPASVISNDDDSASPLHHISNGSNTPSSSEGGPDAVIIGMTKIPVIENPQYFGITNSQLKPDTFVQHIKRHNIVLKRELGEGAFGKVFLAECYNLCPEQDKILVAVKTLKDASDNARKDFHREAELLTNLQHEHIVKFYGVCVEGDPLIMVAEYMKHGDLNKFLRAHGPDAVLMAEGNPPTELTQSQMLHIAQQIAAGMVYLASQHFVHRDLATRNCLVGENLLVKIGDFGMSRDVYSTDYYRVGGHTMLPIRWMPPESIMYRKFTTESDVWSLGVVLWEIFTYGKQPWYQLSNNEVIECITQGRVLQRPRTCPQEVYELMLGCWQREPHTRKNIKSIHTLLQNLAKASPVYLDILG

With `CN(C)CCCN1c2ccccc2CCc2ccccc21` [imipramine, reference compound], the TrkA activation result at TrkA is on record as “not imipramine”. For the same compound, the “blockade of glutamate-provoked caspase-3 activation” value in the experiment on caspase-3 (wild-type cortical neurons) is on record as “failed to block caspase-3 activation”. Besides, the TrkB activation entry in the experiment with TrkB [1] is “not imipramine”. In addition, the swimming immobility result in the experiment on mice (mice, subchronic treatment 5 days, imipramine 20 mg/kg, deoxygedunin 5 mg/kg) is reported as “significantly decreased”.
For `CN(C)CCC=C1c2ccccc2CCc2ccccc21` [amitriptyline], the TrkA activation entry at TrkA is “activated both TrkA and TrkB”. Moreover, the “blockade of glutamate-provoked caspase-3 activation” value in the experiment on caspase-3 (TrkB −/− cortical neurons) and with caspase-3 (wild-type cortical neurons) was “weakly suppressed caspase-3 activation” throughout. The TrkB activation entry in the experiment on TrkB [1] is “activated both TrkA and TrkB”.
Regarding `O=c1cc(-c2ccccc2)oc2c(O)c(O)ccc12` [7,8-dihydroxyflavone], the TrkA activation entry at TrkA is recorded as “not TrkA”. Further, the “blockade of glutamate-provoked caspase-3 activation” value is “not TrkB −/− neurons” in the experiment with caspase-3 (TrkB −/− cortical neurons) and “substantially blocked” in the experiment with caspase-3 (wild-type cortical neurons). Moreover, the TrkB activation entry with TrkB [1] is given as “selectively activated TrkB”.
Take `CC(C)(C)n1nc(Cc2cccc3ccccc23)c2c(N)ncnc21` [1NMPP1]: in the experiment with Akt and Erk1/2, the “blockade of BDNF-triggered Akt and Erk1/2 activation” value is “blocked BDNF-triggered Akt and Erk1/2 activation”; the “effect on Akt and Erk1/2 activation by deoxygedunin” value was “diminished Akt and Erk1/2 activation”. Moreover, the “effect of 1NMPP1 pretreatment on deoxygedunin's protective effect” value with TrkB F616A knockin mice (F616A mice, KA) is on record as “diminished deoxygedunin's protective effect”. The “effect of 1NMPP1 pretreatment on KA-provoked apoptosis” value with TrkB F616A knockin mice (TrkB F616A mice) is “elevated KA-provoked apoptosis”. Besides, the “immobility time, 1NMPP1-treated versus saline” value in the experiment with mice (TrkB F616A knockin mice, no test drug) is “No significant difference”. In addition, at TrkB F616A, the “blockade of BDNF-provoked TrkB phosphorylation” value is “selectively blocked” and the “blockade of deoxygedunin provoked TrkB phosphorylation” value is listed as “selectively blocked”.
As to `CC(=O)O[C@@H]1CC2C(C)(C)C(=O)CC[C@]2(C)C2CC[C@]3(C)C(=CC(=O)O[C@H]3c3ccoc3)[C@@]21C` (some centres unmarked) [dihydrodeoxygedunin], in the experiment with hippocampal neurons [2], the “protective effect (apoptosis inhibitory activity)” value was “protective effect”. Moreover, the “protective effects on hippocampal neurons under OGD” value in the experiment with hippocampal neurons [3] is on record as “potent protective effects”.
Take `COC(=O)[C@@]1(O)C[C@H]2O[C@]1(C)n1c3ccccc3c3c4c(c5c6ccccc6n2c5c31)C(=O)NC4` [K252a]: in the experiment on Akt and Erk1/2, the “blockade of BDNF-triggered Akt and Erk1/2 activation” value was “not K252a”. Also, the “blockade of deoxygedunin-triggered TrkB activation” value in the experiment on TrkB [4] is on record as “substantially blocked”. For the same compound, on TrkB F616A, the “blockade of BDNF-provoked TrkB phosphorylation” value was “not K252a” and the “blockade of deoxygedunin provoked TrkB phosphorylation” value was “not K252a”. In addition, in the experiment on Erk1/2 and Akt, the “blockade of deoxygedunin-provoked downstream Akt and MAPK signalings” value was “blocked”.
